Patent US9567322B2, “Substituted tetrahydropyrans and method of use” (AbbVie S.á.r.l., priority 2014, dated 2017)

Tests used:
[1] = biological target: T1, F508delCFTR (Homo sapiens, UniProt P13569, DEL508-508); assay: Cell Surface Expression-Horse Radish Peroxidase (CSE-HRP) assay; assay type: cell-based; settings: CFBE41o-F508delCFTR-HRP cells; for EC50: cell surface expression, luminescence readout, 18-24 hours at 33° C., highest concentration tested 20 μM, 8-point curve; for Maximum % activity: maximum at any tested concentration, normalized to on-plate positive control (3 μM) and DMSO
T1 construct: expressed in transfected cells; host or cells: CFBE41o- (CFBE41o-F508delCFTR-HRP), doxycycline-inducible
Method in brief: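 CFBE41o- cells expressing F508delCFTR with HRP in the fourth extracellular loop were doxycycline-induced (0.5 μg/mL) for 72 h at 37 °C, then treated 18-24 h at 33 °C with an 8-point 3-fold series from 20 μM. Surface HRP luminescence (luminol) was normalized to DMSO and positive control; EC50 came from variable-slope sigmoidal fits of triplicate plates.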

[2] = biological target: T2, F508del/F508del CFTR (Homo sapiens, UniProt P13569, DEL508-508); assay: Transepithelial Clamp Circuit (TECC-24) conductance assay on primary human bronchial epithelial cells; assay type: cell-based; settings: primary hBE cells from F508del/F508delCFTR patients; for EC50: equivalent short circuit current (Ieq), correctors 18-24 hours at 37° C., with control potentiator, 6 test concentrations; for Maximum % activity: relative to positive control (3 μM) coupled with control potentiator = 100%
T2 construct: cells isolated from CF patients with the homozygous mutation; endogenous in cells; host or cells: primary human bronchial epithelial (hBE) cells from F508del/F508del CF patients
Description: Transepithelial Clamp Circuit on Human Bronchial Epithelial Cells Conductance Assay:
A cell based assay using the primary human bronchial epithelial cells (hBE) was used as a secondary assay to test novel F508delCFTR correctors for their activity on primary hBE cells with F508del/F508del CFTR mutation. The assay used a TECC-24 (Transepithelial Clamp Circuit for 24 wells) instrument that measures the functionality of the mutated channel by measuring the equivalent short circuit current (Ieq) generated by the polarized epithelial cells. The instrument works by measuring the transepithelial potential difference (Vt) and transepithelial resistance (Rt) in an open circuit format, and the Ieq is calculated by using Ohms law (Ieq=Vt/Rt). The assay was run in a 24-well format and all 24-wells were measured at the same time point giving a higher throughput for this assay.
Primary human bronchial epithelial (hBE) cells from F508del/F508delCFTR patients were expanded from 1×10^6 to 250×10^6 cells (Neuberger T, Burton B, Clark H and VanGoor F; Cystic Fibrosis, Methods in Mole Biol 741; eds. Amaral M D and Kunzelmann K, 2011). For this purpose, cells isolated from CF patients with the homozygous mutation were seeded onto 24 well Corning (Cat #3378) filter plates that were coated with 3T3 conditioned media and grown at an air-liquid interface for 35 days using an Ultroser® G supplemented differentiation media. Apical surface mucus was removed 72 hours before the experiment using 3 mM dithiothreitol (DTT) in phosphate buffered saline (PBS). The apical surface was washed again 24 hours before the experiment using PBS. The cells were incubated with the desired dose response of the corrector compounds 18-24 hours at 37° C., 5% CO2. The corrector compounds are only added on the basolateral side of the epithelial cells.
On the day of measuring the corrector activity on the TECC, the cells were switched into a bicarbonate and serum free F-12 Coon's medium and allowed to equilibrate for 90 minutes in a CO2 free incubator. At the time of measurement, the apical and basolateral sides of the filter were bathed with the F-12 Coon's modification media (with 20 mM 4-(2-hydroxyethyl)-1-piperazineethanesulfonic acid (HEPES), pH 7.4 (using 1 M tris(hydroxymethyl)aminomethane (Tris)), and the measurements were made at 36.5° C. Transepithelial voltage (Vt) and transepithelial resistance (Rt) were measured using a 24 channel transepithelial current clamp (TECC-24). Current responses to the sequential addition of benzamil (apical 6 M addition; for inhibiting epithelial ENaC channel), forskolin (apical and basolateral 10 M addition; for activating the CFTR channel), control potentiator (N-(3-carbamoyl-5,5,7,7-tetramethyl-4,7-dihydro-5H-thieno[2,3-c]pyran-2-yl)-1H-pyrazole-5-carboxamide; apical and basolateral 1 M addition; for potentiating the CFTR channel) and bumetanide (basolateral 20 μM addition; for inhibiting the Na:2Cl:K co-transporter, an indirect measure of inhibiting the Cl-secretion driven by CFTR channel) were measured.
All plates contained negative controls (dimethyl sulfoxide, DMSO) which coupled with the control potentiator (N-(3-carbamoyl-5,5,7,7-tetramethyl-4,7-dihydro-5H-thieno[2,3-c]pyran-2-yl)-1H-pyrazole-5-carboxamide) sets the null response and positive controls (3 μM of 3-[(2R,4R)-4-({[1-(2,2-difluoro-1,3-benzodioxol-5-yl)cyclopropyl]carbonyl}amino)-7-methoxy-3,4-dihydro-2H-chromen-2-yl]benzoic acid) coupled with the control potentiator sets the 100% response to measure the correction of the mutated CFTR channel. The maximum percent activity is reported relative to the positive control value.
The % activity measured at each of the 6 test concentrations of the test compound was normalized to the on-plate positive control using the following formula: % activity=[(test compound response−DMSO response)/(positive control response−DMSO response)]*100 […]

T1 sequence (P13569 with tags, fused parts or gaps DEL508-508): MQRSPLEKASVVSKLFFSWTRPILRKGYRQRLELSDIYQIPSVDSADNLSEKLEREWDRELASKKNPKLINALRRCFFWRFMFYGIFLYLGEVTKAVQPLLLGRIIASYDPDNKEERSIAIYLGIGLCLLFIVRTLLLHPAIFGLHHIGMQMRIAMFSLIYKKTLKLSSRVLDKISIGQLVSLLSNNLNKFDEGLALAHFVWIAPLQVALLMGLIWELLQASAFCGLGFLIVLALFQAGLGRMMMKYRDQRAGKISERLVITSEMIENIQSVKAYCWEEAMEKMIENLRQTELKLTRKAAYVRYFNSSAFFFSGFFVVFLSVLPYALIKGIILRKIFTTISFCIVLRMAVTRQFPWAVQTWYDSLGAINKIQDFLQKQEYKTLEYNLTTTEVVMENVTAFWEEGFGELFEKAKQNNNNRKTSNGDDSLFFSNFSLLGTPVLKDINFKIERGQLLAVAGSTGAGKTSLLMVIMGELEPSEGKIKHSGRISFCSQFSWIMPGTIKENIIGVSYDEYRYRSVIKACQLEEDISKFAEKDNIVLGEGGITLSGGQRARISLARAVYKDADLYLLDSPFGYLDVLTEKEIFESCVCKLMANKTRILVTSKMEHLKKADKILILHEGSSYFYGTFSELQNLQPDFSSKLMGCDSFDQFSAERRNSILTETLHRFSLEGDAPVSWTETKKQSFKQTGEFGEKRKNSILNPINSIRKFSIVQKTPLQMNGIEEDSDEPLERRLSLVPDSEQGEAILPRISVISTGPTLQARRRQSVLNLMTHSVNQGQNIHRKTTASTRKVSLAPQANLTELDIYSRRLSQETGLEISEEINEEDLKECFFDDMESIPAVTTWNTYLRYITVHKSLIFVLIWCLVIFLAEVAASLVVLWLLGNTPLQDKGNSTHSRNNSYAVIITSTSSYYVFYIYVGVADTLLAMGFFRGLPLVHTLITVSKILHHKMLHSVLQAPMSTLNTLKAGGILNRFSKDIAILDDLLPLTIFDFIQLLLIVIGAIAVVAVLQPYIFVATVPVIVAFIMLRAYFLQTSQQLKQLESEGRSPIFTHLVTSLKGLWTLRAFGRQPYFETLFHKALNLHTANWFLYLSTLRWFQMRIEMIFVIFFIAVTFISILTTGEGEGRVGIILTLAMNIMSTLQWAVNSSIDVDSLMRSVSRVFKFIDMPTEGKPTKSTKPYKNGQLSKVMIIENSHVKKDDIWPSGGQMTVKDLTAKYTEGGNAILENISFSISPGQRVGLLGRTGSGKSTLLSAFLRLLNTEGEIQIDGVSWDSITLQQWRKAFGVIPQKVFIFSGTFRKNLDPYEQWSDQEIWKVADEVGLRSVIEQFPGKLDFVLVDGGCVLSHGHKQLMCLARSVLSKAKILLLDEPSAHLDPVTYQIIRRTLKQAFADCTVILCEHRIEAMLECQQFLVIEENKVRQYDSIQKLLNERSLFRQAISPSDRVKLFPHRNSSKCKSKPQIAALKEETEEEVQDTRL
T2 sequence (P13569 with tags, fused parts or gaps DEL508-508): as above

| EC50 [1] [nM] | Maximum % activity [1] [%] | EC50 [2] [nM] | Maximum % activity [2] [%] | Structure (SMILES) |
| --- | --- | --- | --- | --- |
| 280 | 109 | 100 | 94 | O=C(O)c1cccc([C@H]2C[C@@H](NC(=O)C3(c4ccc5c(c4)OC(F)(F)O5)CC3)C[C@@H](c3ccccc3)O2)c1 [Example 27, 3-[(2R,4S,6S)-4-({[1-(2,2-difluoro-1,3-benzodioxol-5-yl)cyclopropyl]carbonyl}amino)-6-phenyltetrahydro-2H-pyran-2-yl]benzoic acid] |
| 770 | 102 | 1030 | 65 | O=C(O)c1ccc([C@H]2C[C@@H](NC(=O)C3(c4ccc5c(c4)OC(F)(F)O5)CC3)CCO2)cc1 [Example 31, 4-[(2R,4S)-4-({[1-(2,2-difluoro-1,3-benzodioxol-5-yl)cyclopropyl]carbonyl}amino)tetrahydro-2H-pyran-2-yl]benzoic acid] |
